Experimental data reported in patent publication US20260234157A1, “COMPOUND AND METHOD FOR TARGETED DEGRADATION OF ANDROGEN RECEPTOR” (Gan & Lee Pharmaceuticals Co., Ltd., priority 2023, published 2026).
Where a chain is given by its changes, count along the chain named.

Legend:
Assay type in all cases: cell-based
AR protein [1] = biological target: T1, AR protein (Homo sapiens, UniProt P10275, T878A); assay: Degradation of AR protein in LNCaP cells (Western blot); settings: LNCaP cells, 8 hours, Western blot grayscale, GAPDH internal reference; for inhibition at 0.01 µM: compound 10 nM, read-out: Degradation rates of the AR protein in LNCaP cells, 10 nM (%); for inhibition at 0.1 µM: compound 100 nM, read-out: Degradation rates of the AR protein in LNCaP cells, 100 nM (%)
T1 construct: degradation activity of the compounds disclosed in the present disclosure on AR protein in LNCaP cells; host or cells: LNCaP FGC
T1 sequence (P10275 1-920 T878A): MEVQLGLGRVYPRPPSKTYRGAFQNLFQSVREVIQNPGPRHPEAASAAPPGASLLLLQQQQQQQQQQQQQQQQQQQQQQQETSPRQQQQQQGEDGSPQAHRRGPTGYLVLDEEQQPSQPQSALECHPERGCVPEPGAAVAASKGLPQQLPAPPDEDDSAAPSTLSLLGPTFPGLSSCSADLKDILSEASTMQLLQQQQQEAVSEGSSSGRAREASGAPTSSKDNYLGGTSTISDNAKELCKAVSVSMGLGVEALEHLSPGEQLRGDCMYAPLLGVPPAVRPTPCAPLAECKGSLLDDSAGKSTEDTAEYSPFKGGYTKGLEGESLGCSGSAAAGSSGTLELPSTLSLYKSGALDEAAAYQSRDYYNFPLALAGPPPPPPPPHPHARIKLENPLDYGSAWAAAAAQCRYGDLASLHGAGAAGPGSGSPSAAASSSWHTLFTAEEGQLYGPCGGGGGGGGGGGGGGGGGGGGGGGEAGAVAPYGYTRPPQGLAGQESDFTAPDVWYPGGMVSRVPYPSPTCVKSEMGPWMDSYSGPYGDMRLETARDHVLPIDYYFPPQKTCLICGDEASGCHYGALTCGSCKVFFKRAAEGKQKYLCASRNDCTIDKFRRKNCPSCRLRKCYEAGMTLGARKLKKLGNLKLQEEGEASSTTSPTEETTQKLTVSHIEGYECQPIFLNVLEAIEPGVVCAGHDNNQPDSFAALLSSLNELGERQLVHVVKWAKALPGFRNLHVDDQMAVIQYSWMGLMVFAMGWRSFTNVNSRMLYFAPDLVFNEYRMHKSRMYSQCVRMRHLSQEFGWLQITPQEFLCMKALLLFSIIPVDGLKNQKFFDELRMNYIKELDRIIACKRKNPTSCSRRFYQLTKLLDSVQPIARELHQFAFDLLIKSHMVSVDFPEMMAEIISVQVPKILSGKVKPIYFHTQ
Procedure, shortened: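 AR assessed by SDS-PAGE/Western blot with infrared imaging; band greyscale normalised to GAPDH gave percent degradation.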

AR protein [2] = biological target: T2, AR protein (Homo sapiens, UniProt P10275); assay: Degradation of AR protein in VCaP cells (Western blot); settings: 8 hours; for inhibition at 0.01 µM: compound at 10 nM, read-out: Degradation rate of the AR protein in VCaP cells, 10 nM (%); for inhibition at 0.1 µM: compound at 100 nM, read-out: Degradation rate of the AR protein in VCaP cells, 100 nM (%)
T2 construct: degradation activity of the compounds disclosed in the present disclosure on AR protein in VCaP cells; host or cells: VCaP
T2 sequence (P10275 1-920): T1 sequence (P10275 1-920 T878A) with A878T
Procedure, shortened: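 VCaP cells treated with compound alongside solvent controls for 8 h, then lysed in RIPA and protein quantified by BCA. AR detected by SDS-PAGE/Western blot with infrared imaging. Degradation rate calculated from band grayscale, with GAPDH as internal reference.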

LNCaP FGC cells = assay: Inhibition of proliferation of LNCaP cells (WST-8); settings: Homo sapiens, LNCaP, 96 h, LNCaP FGC cells, 96 hours, WST-8 absorbance at 450 nm; read-out: IC50 for inhibiting the proliferation of LNCaP cells
Experimental: The cells were cultured in a cell culture incubator with 5% CO2 at 37° C. overnight. […] On the sixth day, 96 well plates were taken out, and 20 μL of WST-8 (Beytime, C0040) reagent was added to each well.

VCaP cells = assay: Inhibition of proliferation of VCaP cells (WST-8); settings: Homo sapiens; VCaP cells, 168 hours, WST-8 absorbance at 450 nm; read-out: IC50 for inhibiting the proliferation of VCaP cells
Procedure, shortened: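 VCaP FGC cells, 15000 per well in DMEM with 10% FBS, were cultured at 37° C, 5% CO2. On day nine, WST-8 reagent was added to read proliferation.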

COc1cc(O[C@H]2C(C)(C)[C@H](NC(=O)c3ccc(N4CCC(F)(CN5CCC6(CC5)COc5cc7c(cc5O6)CN(C5CCC(=O)NC5=O)C7=O)CC4)cc3)C2(C)C)ccc1C#N (stereo partly drawn) [Compound 284]
inhibition at 0.01 µM (AR protein [1]): 18%
inhibition at 0.1 µM (AR protein [1]): 51%
inhibition at 0.01 µM (AR protein [2]): 9%
inhibition at 0.1 µM (AR protein [2]): 73%
IC50 (LNCaP FGC cells): 5840 nM
IC50 (VCaP cells): 19 nM

CCC1(CN2CCC3(CC2)COc2c3ccc3c2C(=O)N(C2CCC(=O)NC2=O)C3=O)CCN(c2ccc(C(=O)N[C@H]3C(C)(C)[C@H](Oc4ccc(C#N)c(OC)c4)C3(C)C)cc2)CC1 (stereo partly drawn) [Compound 286]
inhibition at 0.01 µM (AR protein [1]): 22%
inhibition at 0.1 µM (AR protein [1]): 34%
inhibition at 0.01 µM (AR protein [2]): -33%
inhibition at 0.1 µM (AR protein [2]): -9%
IC50 (LNCaP FGC cells): 3720 nM
IC50 (VCaP cells): 57 nM

COc1cc(O[C@H]2C(C)(C)[C@H](NC(=O)c3ccc(N4CCC(C)(CN5CCC6(CCc7cc8c(cc7O6)C(=O)N(C6CCC(=O)NC6=O)C8=O)CC5)CC4)cc3)C2(C)C)ccc1C#N (stereo partly drawn) [Compound 287]
inhibition at 0.01 µM (AR protein [1]): 28%
inhibition at 0.1 µM (AR protein [1]): 51%
inhibition at 0.01 µM (AR protein [2]): -31%
inhibition at 0.1 µM (AR protein [2]): 13%
IC50 (LNCaP FGC cells): 70500 nM
IC50 (VCaP cells): 310 nM

COc1cc(O[C@H]2C(C)(C)[C@H](NC(=O)c3ccc(N4CCC(C)(CN5CCC6(CC5)COc5cc7c(cc56)C(=O)N(C5CCC(=O)NC5=O)C7=O)CC4)cc3)C2(C)C)ccc1C#N (stereo partly drawn) [Compound 288]
inhibition at 0.01 µM (AR protein [1]): -18%
inhibition at 0.1 µM (AR protein [1]): 18%
inhibition at 0.01 µM (AR protein [2]): 7%
inhibition at 0.1 µM (AR protein [2]): 41%
IC50 (LNCaP FGC cells): 65900 nM
IC50 (VCaP cells): 74 nM

COc1cc(O[C@H]2C(C)(C)[C@H](NC(=O)c3ccc(N4CCC(C)(CN5CCC6(CC5)COc5cc7c(cc5C6)C(=O)N(C5CCC(=O)NC5=O)C7=O)CC4)cc3)C2(C)C)ccc1C#N (stereo partly drawn) [Compound 289]
inhibition at 0.01 µM (AR protein [1]): 27%
inhibition at 0.1 µM (AR protein [1]): 63%
inhibition at 0.01 µM (AR protein [2]): -21%
inhibition at 0.1 µM (AR protein [2]): 15%
IC50 (LNCaP FGC cells): 66000 nM
IC50 (VCaP cells): 82 nM

COc1cc(O[C@H]2C(C)(C)[C@H](NC(=O)c3ccc(N4CCC(C)(CN5CC6(CCc7ccc8c(c7O6)C(=O)N(C6CCC(=O)NC6=O)C8=O)C5)CC4)cc3)C2(C)C)ccc1C#N (stereo partly drawn) [Compound 290]
inhibition at 0.01 µM (AR protein [1]): -14%
inhibition at 0.1 µM (AR protein [1]): 18%
inhibition at 0.01 µM (AR protein [2]): -2%
inhibition at 0.1 µM (AR protein [2]): 6%
IC50 (LNCaP FGC cells): 60900 nM
IC50 (VCaP cells): 9420 nM

COc1cc(O[C@H]2C(C)(C)[C@H](NC(=O)c3ccc(N4CCC(C)(CN5CC6(CCc7cc8c(cc7O6)C(=O)N(C6CCC(=O)NC6=O)C8=O)C5)CC4)cc3)C2(C)C)ccc1C#N (stereo partly drawn) [Compound 291]
inhibition at 0.01 µM (AR protein [1]): 9%
inhibition at 0.1 µM (AR protein [1]): 57%
inhibition at 0.01 µM (AR protein [2]): 21%
inhibition at 0.1 µM (AR protein [2]): 53%
IC50 (LNCaP FGC cells): 2880 nM
IC50 (VCaP cells): 47 nM

CCC1(CN2CCC3(CC2)COc2c3ccc3c2CN(C2CCC(=O)NC2=O)C3=O)CCN(c2ccc(C(=O)N[C@H]3C(C)(C)[C@H](Oc4ccc(C#N)c(OC)c4)C3(C)C)cc2)CC1 (stereo partly drawn) [Compound 294]
inhibition at 0.01 µM (AR protein [1]): 54%
inhibition at 0.1 µM (AR protein [1]): 57%
inhibition at 0.01 µM (AR protein [2]): 13%
inhibition at 0.1 µM (AR protein [2]): 62%
IC50 (LNCaP FGC cells): 77 nM
IC50 (VCaP cells): 2 nM

CCOC1(CN2CCC3(CC2)COc2c3ccc3c2C(=O)N(C2CCC(=O)NC2=O)C3=O)CCN(c2ccc(C(=O)N[C@H]3C(C)(C)[C@H](Oc4ccc(C#N)c(OC)c4)C3(C)C)cc2)CC1 (stereo partly drawn) [Compound 295]
inhibition at 0.01 µM (AR protein [1]): 1%
inhibition at 0.1 µM (AR protein [1]): 44%
inhibition at 0.01 µM (AR protein [2]): -4%
inhibition at 0.1 µM (AR protein [2]): 37%
IC50 (LNCaP FGC cells): 370 nM
IC50 (VCaP cells): 20 nM

COc1cc(O[C@H]2C(C)(C)[C@H](NC(=O)c3ccc(N4CCC(CN5CCC6(CCc7cc8c(cc7O6)CN(C6CCC(=O)NC6=O)C8=O)CC5)CC4)cc3)C2(C)C)ccc1C#N (stereo partly drawn) [Compound 296]
inhibition at 0.01 µM (AR protein [1]): 53%
inhibition at 0.1 µM (AR protein [1]): 63%
inhibition at 0.01 µM (AR protein [2]): 0%
inhibition at 0.1 µM (AR protein [2]): 59%
IC50 (LNCaP FGC cells): 6600 nM
IC50 (VCaP cells): 1 nM

COc1cc(O[C@H]2C(C)(C)[C@H](NC(=O)c3ccc(N4CCC(CN5CC6(CCc7cc8c(cc7O6)CN(C6CCC(=O)NC6=O)C8=O)C5)CC4)cc3)C2(C)C)ccc1C#N (stereo partly drawn) [Compound 297]
inhibition at 0.01 µM (AR protein [1]): 42%
inhibition at 0.1 µM (AR protein [1]): 40%
inhibition at 0.01 µM (AR protein [2]): 47%
inhibition at 0.1 µM (AR protein [2]): 81%
IC50 (LNCaP FGC cells): 61400 nM
IC50 (VCaP cells): 2 nM
